Experimental data as given in article PMC6199744, “Development of Chemical Proteomics for the Folateome and Analysis of the Kinetoplastid Folateome” (ACS Infectious Diseases, 2018).
Read-outs that look alike come from different tables or passages of the source.

What was measured:
Assay type in all cases: binding
[1] = biological target: T1, HeLa cell extract proteins (Homo sapiens, UniProt P68371); conditions: captured protein TUBB2C; HeLa
T1 construct: endogenous in cells; host or cells: HeLa cell extract

[2] = biological target: T2, HeLa cell extract proteins (Homo sapiens, UniProt A0FGR8); conditions: HeLa; protein FAM62B
T2 construct: endogenous in cells; host or cells: HeLa cell extract
T2 sequence (A0FGR8 1-921): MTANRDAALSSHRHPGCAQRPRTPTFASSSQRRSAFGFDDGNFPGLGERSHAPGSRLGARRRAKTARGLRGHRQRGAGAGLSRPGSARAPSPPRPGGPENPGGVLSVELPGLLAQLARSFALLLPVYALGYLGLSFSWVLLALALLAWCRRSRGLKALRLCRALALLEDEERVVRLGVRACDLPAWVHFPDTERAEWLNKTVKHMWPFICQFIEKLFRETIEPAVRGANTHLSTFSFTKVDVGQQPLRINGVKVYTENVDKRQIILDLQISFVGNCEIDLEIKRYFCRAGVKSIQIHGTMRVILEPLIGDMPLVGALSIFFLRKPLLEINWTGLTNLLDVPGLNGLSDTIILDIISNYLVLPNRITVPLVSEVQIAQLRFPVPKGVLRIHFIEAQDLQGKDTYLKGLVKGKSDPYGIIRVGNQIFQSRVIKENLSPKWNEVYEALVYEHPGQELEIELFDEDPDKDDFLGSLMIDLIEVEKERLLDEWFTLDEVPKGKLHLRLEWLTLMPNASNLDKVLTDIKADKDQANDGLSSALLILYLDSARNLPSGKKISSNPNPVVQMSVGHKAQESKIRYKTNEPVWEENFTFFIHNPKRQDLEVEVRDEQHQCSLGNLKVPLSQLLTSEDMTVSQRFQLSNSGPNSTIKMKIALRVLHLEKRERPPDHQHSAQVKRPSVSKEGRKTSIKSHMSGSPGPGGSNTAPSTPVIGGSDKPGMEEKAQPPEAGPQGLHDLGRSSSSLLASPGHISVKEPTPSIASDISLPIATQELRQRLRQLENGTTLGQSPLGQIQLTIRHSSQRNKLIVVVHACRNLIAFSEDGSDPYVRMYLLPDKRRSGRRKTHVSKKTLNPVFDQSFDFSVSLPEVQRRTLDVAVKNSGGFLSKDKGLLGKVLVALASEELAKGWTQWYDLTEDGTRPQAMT

[3] = biological target: T3, HeLa cell extract proteins (Homo sapiens, UniProt Q8WUK0); conditions: captured protein PTPMT1; HeLa
T3 construct: endogenous in cells; host or cells: HeLa cell extract
T3 sequence (Q8WUK0 28-201): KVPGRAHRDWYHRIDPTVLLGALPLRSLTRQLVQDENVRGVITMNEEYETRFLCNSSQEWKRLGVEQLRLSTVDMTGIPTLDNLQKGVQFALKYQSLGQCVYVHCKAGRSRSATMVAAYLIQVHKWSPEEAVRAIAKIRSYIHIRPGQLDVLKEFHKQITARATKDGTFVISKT

[4] = biological target: T4, HeLa cell extract proteins (Homo sapiens, UniProt P31939)
T4 construct: endogenous in cells; host or cells: HeLa cell extract

[5] = biological target: T5, HeLa cell extract proteins (Homo sapiens, UniProt P13797)
T5 construct: endogenous in cells; host or cells: HeLa cell extract
T5 sequence (P13797 1-630): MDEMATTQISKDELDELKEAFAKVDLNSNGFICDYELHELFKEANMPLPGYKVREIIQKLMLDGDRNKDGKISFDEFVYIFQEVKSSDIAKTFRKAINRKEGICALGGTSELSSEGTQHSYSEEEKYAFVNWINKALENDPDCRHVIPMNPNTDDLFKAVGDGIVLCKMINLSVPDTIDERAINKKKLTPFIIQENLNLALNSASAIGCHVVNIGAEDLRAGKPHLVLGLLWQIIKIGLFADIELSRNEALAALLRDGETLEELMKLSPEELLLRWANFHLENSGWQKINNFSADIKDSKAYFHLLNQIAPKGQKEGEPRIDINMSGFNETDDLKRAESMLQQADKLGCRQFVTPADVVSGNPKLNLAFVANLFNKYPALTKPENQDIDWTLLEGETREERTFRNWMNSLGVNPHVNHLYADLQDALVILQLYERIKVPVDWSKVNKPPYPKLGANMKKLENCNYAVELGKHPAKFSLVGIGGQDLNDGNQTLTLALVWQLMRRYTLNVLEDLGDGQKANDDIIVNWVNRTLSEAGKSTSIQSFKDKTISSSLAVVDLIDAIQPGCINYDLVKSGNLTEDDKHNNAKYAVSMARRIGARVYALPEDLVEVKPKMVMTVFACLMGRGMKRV

[6] = biological target: T6, HeLa cell extract proteins (Homo sapiens, UniProt Q96QU8)
T6 construct: endogenous in cells; host or cells: HeLa cell extract
T6 sequence (Q96QU8 1-1125): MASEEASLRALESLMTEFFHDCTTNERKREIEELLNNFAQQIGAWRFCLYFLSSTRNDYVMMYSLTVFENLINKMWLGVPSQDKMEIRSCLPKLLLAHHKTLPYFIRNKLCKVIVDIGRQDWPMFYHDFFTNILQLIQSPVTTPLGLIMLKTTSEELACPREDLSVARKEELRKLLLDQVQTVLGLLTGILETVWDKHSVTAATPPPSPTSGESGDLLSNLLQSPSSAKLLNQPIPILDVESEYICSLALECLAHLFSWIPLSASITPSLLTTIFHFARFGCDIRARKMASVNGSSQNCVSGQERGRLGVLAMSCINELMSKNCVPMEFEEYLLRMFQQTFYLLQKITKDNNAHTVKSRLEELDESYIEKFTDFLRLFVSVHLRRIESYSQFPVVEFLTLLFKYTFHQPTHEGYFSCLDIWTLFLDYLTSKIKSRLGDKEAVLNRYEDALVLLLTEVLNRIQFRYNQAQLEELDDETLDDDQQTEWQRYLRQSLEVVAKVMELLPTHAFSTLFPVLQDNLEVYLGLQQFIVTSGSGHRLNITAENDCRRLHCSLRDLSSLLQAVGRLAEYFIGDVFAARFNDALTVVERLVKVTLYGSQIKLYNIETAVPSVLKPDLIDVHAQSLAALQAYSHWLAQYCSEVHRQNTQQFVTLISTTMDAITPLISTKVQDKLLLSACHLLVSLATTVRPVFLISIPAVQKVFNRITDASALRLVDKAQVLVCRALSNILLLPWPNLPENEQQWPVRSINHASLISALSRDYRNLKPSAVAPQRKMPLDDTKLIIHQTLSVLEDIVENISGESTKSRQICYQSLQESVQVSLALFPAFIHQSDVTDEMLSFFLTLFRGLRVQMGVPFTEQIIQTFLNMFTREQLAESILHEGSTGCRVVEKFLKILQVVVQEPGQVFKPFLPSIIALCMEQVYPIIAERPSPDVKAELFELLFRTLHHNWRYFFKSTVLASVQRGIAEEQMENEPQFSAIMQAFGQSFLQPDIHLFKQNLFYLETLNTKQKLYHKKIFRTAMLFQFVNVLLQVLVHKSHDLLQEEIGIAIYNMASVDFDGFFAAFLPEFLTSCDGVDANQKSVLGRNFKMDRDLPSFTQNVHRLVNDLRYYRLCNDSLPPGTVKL

T1 sequence (P68371 whole entry): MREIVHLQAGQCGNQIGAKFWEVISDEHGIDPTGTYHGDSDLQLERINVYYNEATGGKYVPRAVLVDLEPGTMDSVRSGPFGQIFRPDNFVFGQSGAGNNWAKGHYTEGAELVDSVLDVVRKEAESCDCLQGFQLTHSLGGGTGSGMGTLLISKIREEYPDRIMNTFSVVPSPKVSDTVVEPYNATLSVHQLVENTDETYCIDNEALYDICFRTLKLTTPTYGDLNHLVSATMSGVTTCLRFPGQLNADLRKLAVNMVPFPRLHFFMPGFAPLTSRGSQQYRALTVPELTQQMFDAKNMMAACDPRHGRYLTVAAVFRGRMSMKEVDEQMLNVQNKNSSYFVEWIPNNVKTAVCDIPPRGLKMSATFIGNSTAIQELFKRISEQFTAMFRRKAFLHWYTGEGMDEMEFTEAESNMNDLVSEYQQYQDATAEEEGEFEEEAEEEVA
T4 sequence (P31939 whole entry): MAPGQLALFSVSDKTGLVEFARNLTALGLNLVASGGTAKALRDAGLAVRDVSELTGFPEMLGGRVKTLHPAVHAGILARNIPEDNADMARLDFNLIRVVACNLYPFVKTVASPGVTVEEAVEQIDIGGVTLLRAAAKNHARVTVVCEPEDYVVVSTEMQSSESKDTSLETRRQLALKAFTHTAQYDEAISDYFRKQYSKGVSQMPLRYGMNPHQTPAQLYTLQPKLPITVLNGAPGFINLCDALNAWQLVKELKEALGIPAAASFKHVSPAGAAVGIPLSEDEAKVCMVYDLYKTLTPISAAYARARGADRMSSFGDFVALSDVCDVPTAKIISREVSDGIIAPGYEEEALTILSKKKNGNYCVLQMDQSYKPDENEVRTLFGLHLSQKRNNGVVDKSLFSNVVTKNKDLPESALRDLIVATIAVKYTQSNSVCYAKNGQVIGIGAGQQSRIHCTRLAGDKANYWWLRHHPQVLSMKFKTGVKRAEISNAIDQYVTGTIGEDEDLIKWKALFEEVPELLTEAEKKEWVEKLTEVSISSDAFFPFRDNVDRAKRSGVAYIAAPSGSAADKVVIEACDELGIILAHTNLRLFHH

Row | Structure (SMILES) | fold changes relative to vehicle control [1] | fold changes relative to vehicle control [2] | fold changes relative to vehicle control [3] | fold changes relative to vehicle control ([4]; HeLa, protein ATIC) | fold changes relative to vehicle control ([5]; HeLa, protein PLS3) | fold changes relative to vehicle control ([6]; HeLa, protein XPO6) | further results
1 | Nc1nc2cccc(-c3ccccc3)c2n1Cc1ccc(Cl)c(Cl)c1 [compound 3] | 1.02 | 0.96 | 0.93 |  |  |  | 
2 | Nc1nc2[nH]cc(CCc3ccc(C(=O)N[C@@H](CCC(=O)O)C(=O)O)cc3)c2c(=O)[nH]1 [PTX, pemetrexed] |  |  |  |  |  |  | fold changes relative to vehicle control [4]: 0.91; fold changes relative to vehicle control [5]: 1.18; fold changes relative to vehicle control [6]: 0.98
3 | Nc1nc2c(c(=O)[nH]1)N(C=O)C(CNc1ccc(C(=O)N[C@@H](CCC(=O)O)C(=O)O)cc1)CN2 (stereo partly drawn) [LEU, leucovorin] |  |  |  | 1.06 | 0.93 | 0.99 | 
4 | CCCCCCOc1cccc(Cc2cnc(N)nc2N)c1 [compound 2] | 0.94 | 1.29 | 0.91 |  |  |  | 
5 | NCCOCCOCC(=O)Nc1nc2ncc(CNc3ccc(C(=O)NC(CCC(=O)O)C(=O)O)cc3)nc2c(=O)[nH]1 (stereo not drawn) [compound 6] |  |  |  | 1.13 | 1.31 | 1.09 | 
6 | CCCCCCOc1ccc(Cc2cnc(N)nc2N)cc1 [compound 1] | 1.03 | 0.82 | 0.88 |  |  |  | 
7 | NCCCNc1ccc(C(=O)NC(CCC(=O)O)C(=O)O)cc1 (stereo not drawn) [compound 7] |  |  |  | 0.99 | 1 | 1.08 | 
